ChEMBL document CHEMBL1141993, “Synthesis and biological activity of new 5-O-sugar modified ketolide and 2-fluoro-ketolide antibiotics” (2005)
≈ marks a conversion by molar mass, not a printed value.

How the values were obtained:
Type in all cases: functional
Streptococcus pneumoniae [1] = assay: Minimum inhibitory concentration of compound against Ery-R Streptococcus pneumoniae 163 was determined
Staphylococcus aureus [2] = assay: Minimum inhibitory concentration of compound against Ery-R Staphylococcus aureus 96:11480 was determined
Staphylococcus aureus [3] = assay: Minimum inhibitory concentration of compound against Ery-S Staphylococcus aureus ATCC 29213 was determined
Streptococcus pyogenes [4] = assay: Minimum inhibitory concentration of compound against Ery-S Streptococcus pyogenes ATCC 19615 was determined
Haemophilus influenzae [5] = assay: Minimum inhibitory concentration of compound against Ery-S Haemophilus influenzae ATCC 49247 was determined
Streptococcus pneumoniae [6] = assay: Minimum inhibitory concentration of compound against Ery-S Streptococcus pneumoniae ATCC 49619 was determined
Streptococcus pneumoniae [7] = assay: Minimum inhibitory concentration of compound against Ery-R Streptococcus pneumoniae 303 was determined
Streptococcus pyogenes [8] = assay: Minimum inhibitory concentration of compound against Streptococcus pyogenes ATCC 13029 Ery-R was determined
Haemophilus influenzae [9] = assay: Minimum inhibitory concentration of compound against Haemophilus influenzae ATCC 49247 Ery-S was determined
Streptococcus pneumoniae [10] = assay: Minimum inhibitory concentration of compound against Streptococcus pneumoniae ATCC 49163 Ery-R was determined
Streptococcus pneumoniae [11] = assay: Minimum inhibitory concentration of compound against Streptococcus pneumoniae ATCC 49303 Ery-R was determined
Streptococcus pneumoniae [12] = assay: Minimum inhibitory concentration of compound against Streptococcus pneumoniae ATCC 49619 Ery-S was determined
Staphylococcus aureus [13] = assay: Minimum inhibitory concentration of compound against Staphylococcus aureus ATCC 23029 Ery-S was determined
Streptococcus pyogenes [14] = assay: Minimum inhibitory concentration of compound against Streptococcus pyogenes ATCC 19615 Ery-S was determined
Staphylococcus aureus [15] = assay: Minimum inhibitory concentration of compound against Staphylococcus aureus ATCC 96:11480 Ery-R was determined
Streptococcus pneumoniae [16] = assay: Minimum inhibitory concentration of compound against Ery-R Streptococcus pneumoniae 5032 was determined
Streptococcus pneumoniae [17] = assay: Minimum inhibitory concentration of compound against Ery-S Streptococcus pneumoniae 3773 was determined
Streptococcus pyogenes [18] = assay: Minimum inhibitory concentration of compound against Ery-R Streptococcus pyogenes ATCC 19615 was determined
Streptococcus pyogenes [19] = assay: Minimum inhibitory concentration of compound against Ery-R Streptococcus pyogenes 1721 was determined
Streptococcus pyogenes [20] = assay: Minimum inhibitory concentration of compound against Ery-R Streptococcus pyogenes 1850 was determined
Streptococcus pyogenes [21] = assay: Minimum inhibitory concentration of compound against Ery-R Streptococcus pyogenes 3029 was determined
Streptococcus pyogenes [22] = assay: Minimum inhibitory concentration of compound against Ery-R Streptococcus pyogenes 3262 was determined
Streptococcus pneumoniae [23] = assay: 1 Minimum inhibitory concentration of compound against Ery-R Streptococcus pneumoniae 163 was determined
Streptococcus pyogenes [24] = assay: Minimum inhibitory concentration of compound against Ery-R Streptococcus pyogenes 13029 was determined
Staphylococcus aureus [25] = assay: Minimum inhibitory concentration of compound against Ery-S Staphylococcus aureus ATCC 23029 was determined

Structure (SMILES)	MIC (Streptococcus pneumoniae [1]) [µg/mL]	MIC (Staphylococcus aureus [2]) [µg/mL]	MIC (Staphylococcus aureus [3]) [µg/mL]	MIC (Streptococcus pyogenes [4]) [µg/mL]	MIC (Haemophilus influenzae [5]) [µg/mL]	MIC (Streptococcus pneumoniae [6]) [µg/mL]	MIC (Streptococcus pneumoniae [7]) [µg/mL]	MIC (Streptococcus pneumoniae [12]) [µg/mL]	MIC (Streptococcus pneumoniae [16]) [µg/mL]	MIC (Streptococcus pneumoniae [17]) [µg/mL]	MIC (Streptococcus pyogenes [19]) [µg/mL]	MIC (Streptococcus pyogenes [20]) [µg/mL]	MIC (Streptococcus pyogenes [21]) [µg/mL]	MIC (Streptococcus pyogenes [22]) [µg/mL]	other results
CC[C@H]1OC(=O)[C@H](C)C(=O)[C@H](C)[C@@H](O[C@@H]2OC[C@@H](O)[C@H](N(C)C)[C@H]2O)[C@@](C)(OC)C[C@@H](C)C(=O)[C@H](C)[C@H]2N(CCCCn3cc(-c4ccccn4)nn3)C(=O)O[C@]12C	2 (≈ 2.45 µM)	4 (≈ 4.91 µM)	4 (≈ 4.91 µM)	≤ 0.125	> 64	4 (≈ 4.91 µM)	16 (≈ 19.6 µM)	–	–	–	–	–	–	–	–
CC[C@H]1OC(=O)[C@H](C)C(=O)[C@H](C)[C@@H](O[C@@H]2O[C@H](COCc3ccccc3)C[C@H](N(C)C)[C@H]2O)[C@@](C)(OC)C[C@@H](C)C(=O)[C@H](C)[C@H]2N(CCCCn3cc(-c4ccccn4)nn3)C(=O)O[C@]12C	–	–	–	–	–	–	–	≤ 0.125	–	–	–	–	–	–	MIC (Streptococcus pyogenes [8]): 0.5 µg/mL (≈ 0.544 µM); MIC (Haemophilus influenzae [9]): 64 µg/mL (≈ 69.6 µM); MIC (Streptococcus pneumoniae [10]): ≤ 0.125 µg/mL; MIC (Streptococcus pneumoniae [11]): ≤ 0.125 µg/mL
CC[C@H]1OC(=O)[C@H](C)C(=O)[C@H](C)[C@@H](O[C@@H]2O[C@H](COCc3ccccc3)[C@@H](O)[C@H](N(C)C)[C@H]2O)[C@@](C)(OC)C[C@@H](C)C(=O)[C@H](C)[C@H]2N(CCCCn3cc(-c4ccccn4)nn3)C(=O)O[C@]12C	–	–	–	–	–	–	–	≤ 0.125	–	–	–	–	–	–	MIC (Staphylococcus aureus [13]): ≤ 0.125 µg/mL; MIC (Streptococcus pyogenes [8]): 2 µg/mL (≈ 2.14 µM); MIC (Streptococcus pyogenes [14]): ≤ 0.125 µg/mL; MIC (Staphylococcus aureus [15]): ≤ 0.125 µg/mL; MIC (Haemophilus influenzae [9]): 64 µg/mL (≈ 68.4 µM); MIC (Streptococcus pneumoniae [10]): ≤ 0.125 µg/mL; MIC (Streptococcus pneumoniae [11]): ≤ 0.125 µg/mL
CC[C@H]1OC(=O)[C@@](C)(F)C(=O)[C@H](C)[C@@H](O[C@@H]2O[C@H](COCc3ccccc3)[C@@H](O)[C@H](N(C)C)[C@H]2O)[C@@](C)(OC)C[C@@H](C)C(=O)[C@H](C)[C@H]2N(CCCCn3cc(-c4cccc(N)c4)nn3)C(=O)O[C@]12C	≤ 0.125	–	–	–	4 (≈ 4.14 µM)	≤ 0.125	≤ 0.125	–	4 (≈ 4.14 µM)	8 (≈ 8.27 µM)	8 (≈ 8.27 µM)	0.25 (≈ 0.258 µM)	0.5 (≈ 0.517 µM)	4 (≈ 4.14 µM)	MIC (Streptococcus pyogenes [18]): ≤ 0.125 µg/mL
CC[C@H]1OC(=O)[C@@](C)(F)C(=O)[C@H](C)[C@@H](O[C@@H]2O[C@H](COCc3ccccc3)C[C@H](N(C)C)[C@H]2O)[C@@](C)(OC)C[C@@H](C)C(=O)[C@H](C)[C@H]2N(CCCCn3cc(-c4cccc(N)c4)nn3)C(=O)O[C@]12C	≤ 0.125	–	–	–	4 (≈ 4.21 µM)	≤ 0.125	≤ 0.125	–	0.25 (≈ 0.263 µM)	4 (≈ 4.21 µM)	8 (≈ 8.41 µM)	0.25 (≈ 0.263 µM)	≤ 0.125	0.5 (≈ 0.526 µM)	–
CC[C@H]1OC(=O)[C@H](C)C(=O)[C@H](C)[C@@H](O[C@@H]2O[C@H](C)C[C@H](N(C)C)[C@H]2O)[C@@](C)(OC)C[C@@H](C)C(=O)[C@H](C)[C@H]2N(CCCCn3cc(-c4ccccn4)nn3)C(=O)O[C@]12C	≤ 0.125	0.125 (≈ 0.154 µM)	≤ 0.125	≤ 0.125	4 (≈ 4.92 µM)	≤ 0.125	≤ 0.125	–	–	–	–	–	> 64	–	–
CC[C@H]1OC(=O)[C@H](C)C(=O)[C@H](C)[C@@H](O[C@@H]2O[C@H](C)[C@@H](O)[C@H](O)[C@H]2O)[C@@](C)(OC)C[C@@H](C)C(=O)[C@H](C)[C@H]2N(CCCCn3cc(-c4ccccn4)nn3)C(=O)O[C@]12C	2 (≈ 2.49 µM)	> 64	> 64	–	> 64	–	16 (≈ 20 µM)	4 (≈ 4.99 µM)	–	–	–	–	–	–	MIC (Streptococcus pyogenes [14]): 8 µg/mL (≈ 9.98 µM)
CC[C@H]1OC(=O)[C@H](C)C(=O)[C@H](C)[C@@H](O[C@@H]2O[C@H](C)[C@@H](O)[C@H](N(C)C)[C@H]2O)[C@@](C)(OC)C[C@@H](C)C(=O)[C@H](C)[C@H]2N(CCCCn3cc(-c4ccccn4)nn3)C(=O)O[C@]12C	0.5 (≈ 0.603 µM)	0.25 (≈ 0.302 µM)	≤ 0.125	≤ 0.125	16 (≈ 19.3 µM)	≤ 0.125	16 (≈ 19.3 µM)	–	–	–	–	–	> 64	–	–
CC[C@H]1OC(=O)[C@@](C)(F)C(=O)[C@H](C)[C@@H](O[C@@H]2O[C@H](CO)[C@@H](O)[C@H](N(C)C)[C@H]2O)[C@@](C)(OC)C[C@@H](C)C(=O)[C@H](C)[C@H]2N(CCCCn3cc(-c4cccc(N)c4)nn3)C(=O)O[C@]12C	≤ 0.125	–	–	–	> 32	≤ 0.125	≤ 0.125	–	> 32	> 32	> 32	> 32	> 32	> 32	MIC (Streptococcus pyogenes [18]): ≤ 0.125 µg/mL
CC[C@H]1OC(=O)[C@H](C)C(=O)[C@H](C)[C@@H](O[C@@H]2O[C@H](CO)[C@@H](O)[C@H](N(C)C)[C@H]2O)[C@@](C)(OC)C[C@@H](C)C(=O)[C@H](C)[C@H]2N(CCCCn3cc(-c4ccccn4)nn3)C(=O)O[C@]12C	–	64 (≈ 75.7 µM)	4 (≈ 4.73 µM)	≤ 0.125	64 (≈ 75.7 µM)	≤ 0.125	≤ 0.125	–	–	–	–	–	> 64	–	MIC (Streptococcus pneumoniae [23]): 4 µg/mL (≈ 4.73 µM)
CC[C@H]1OC(=O)[C@H](C)[C@@H](O[C@H]2C[C@@](C)(OC)[C@@H](O)[C@H](C)O2)[C@H](C)[C@@H](O[C@@H]2O[C@H](C)C[C@H](N(C)C)[C@H]2O)[C@](C)(O)C[C@@H](C)CN(C)[C@H](C)[C@@H](O)[C@]1(C)O [AZITHROMYCIN]	8 (≈ 10.7 µM)	≥ 64	–	≤ 0.125	4 (≈ 5.34 µM)	≤ 0.125	> 64	–	> 64	> 64	> 64	> 64	–	> 64	MIC (Streptococcus pyogenes [24]): > 64 µg/mL; MIC (Staphylococcus aureus [25]): 1 µg/mL (≈ 1.34 µM)
CC[C@H]1OC(=O)[C@H](C)C(=O)[C@H](C)[C@@H](O[C@@H]2O[C@H](C)C[C@H](N(C)C)[C@H]2O)[C@](C)(OC)C[C@@H](C)C(=O)[C@H](C)[C@H]2N(CCCCn3cnc(-c4cccnc4)c3)C(=O)O[C@]12C [TELITHROMYCIN]	≤ 0.125	≤ 0.125	≤ 0.125	≤ 0.125	4 (≈ 4.93 µM)	–	≤ 0.125	≤ 0.125	0.5 (≈ 0.616 µM)	1 (≈ 1.23 µM)	64 (≈ 78.8 µM)	8 (≈ 9.85 µM)	16 (≈ 19.7 µM)	32 (≈ 39.4 µM)	–
